Tests used:
GPR6 = target: T1, GPR6 (Homo sapiens, UniProt P46095); assay: GPR6 antagonist functional cAMP assay (LANCE Ultra cAMP TR-FRET, CHO cells stably expressing GPR6); assay type: cell-based
T1 construct: expressed in transfected cells; host or cells: CHO cells
How it was run: (§1)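 Stable CHO-GPR6 or CHO-GPR3 cells (10,000/well) in Krebs-Ringer buffer with 0.1% BSA and 150 μM Ro 20-1724 were exposed to compounds for 45 min at 37° C (0.1% DMSO). cAMP read by LANCE Ultra TR-FRET; IC50 from 4-parameter fit normalized to DMSO and reference compounds.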

GPR3 = target: T2, GPR3 (Homo sapiens, UniProt P46089); assay: GPR3 antagonist functional cAMP assay (LANCE Ultra cAMP TR-FRET, CHO cells stably expressing GPR3); assay type: cell-based
T2 construct: expressed in transfected cells; host or cells: CHO cells
How it was run: as §1

[1] = CHO cells stably expressing GPR6, cAMP assay (Example 24)
[2] = CHO cells stably expressing GPR3, cAMP assay (Example 24)
[3] = CHO cells stably expressing GPR6, cAMP assay
[4] = CHO cells stably expressing GPR3, cAMP assay
[5] = procedure as described in Example 24

T1 sequence (P46095 whole entry): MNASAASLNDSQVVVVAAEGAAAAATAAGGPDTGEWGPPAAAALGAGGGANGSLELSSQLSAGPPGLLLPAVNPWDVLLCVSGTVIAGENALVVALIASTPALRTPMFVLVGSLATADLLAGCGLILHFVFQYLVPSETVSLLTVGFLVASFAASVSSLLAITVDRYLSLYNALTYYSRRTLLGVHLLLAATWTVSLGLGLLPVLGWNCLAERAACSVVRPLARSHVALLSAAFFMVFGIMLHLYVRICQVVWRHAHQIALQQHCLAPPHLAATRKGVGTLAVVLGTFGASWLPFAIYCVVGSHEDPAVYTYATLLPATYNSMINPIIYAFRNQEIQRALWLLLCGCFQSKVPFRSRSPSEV
T2 sequence (P46089 whole entry, species assumed): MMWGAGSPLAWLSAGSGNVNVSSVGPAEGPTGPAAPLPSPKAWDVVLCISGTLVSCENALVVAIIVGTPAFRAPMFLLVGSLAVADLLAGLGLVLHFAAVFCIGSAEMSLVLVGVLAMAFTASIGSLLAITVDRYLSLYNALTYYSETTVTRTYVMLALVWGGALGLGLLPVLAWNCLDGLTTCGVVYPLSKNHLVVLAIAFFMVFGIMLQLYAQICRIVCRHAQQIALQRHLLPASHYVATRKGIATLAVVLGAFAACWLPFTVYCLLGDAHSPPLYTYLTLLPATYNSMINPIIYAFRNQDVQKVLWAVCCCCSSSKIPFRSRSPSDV

SMILES | IC50 (GPR6; procedure of Example 24) [µM] | IC50 (GPR3; procedure of Example 24) [µM] | IC50 (GPR6; [1]) [µM] | IC50 (GPR3; [2]) [µM] | further results
Cn1cc(-c2nc3cnc(C4CNC(=O)O4)cc3nc2N2CCC(Oc3ccc(F)cc3F)CC2)cn1 (stereo not drawn) [Compound 371, 5-(2-(4-(2,4-difluorophenoxy)piperidin-1-yl)-3-(1-methyl-1H-pyrazol-4-yl)pyrido[3,4-b]pyrazin-7-yl)oxazolidin-2-one] | 0.1 to 1 | 1 to 30 | – | – | –
N#CN1CCc2nc(N3CCC(Oc4ccc(F)cc4F)CC3)c(-c3cnn(C4CCCCO4)c3)nc2C1 (stereo not drawn) [Compound 200, 2-[4-(2,4-difluorophenoxy)piperidin-1-yl]-3-[1-(oxan-2-yl)-1H-pyrazol-4-yl]-5H,6H,7H,8H-pyrido[3,4-b]pyrazine-6-carbonitrile] | – | – | 1 to 30 | 1 to 30 | –
COC[C@@](C)(O)c1cc2nc(N3CCC(Oc4ccc(F)cc4F)CC3)c(-c3cnn(C)c3)nc2cn1 (single isomer, unassigned) [Compound 615] | 0.1 to 1 | 1 to 30 | – | – | –
CNc1cncc(-c2nc3c(nc2N2CCC(Oc4ccc(F)cc4F)CC2)CCN(C(C)=O)C3)n1 [Compound 329, 1-{2-[4-(2,4-difluorophenoxy)piperidin-1-yl]-3-[6-(methylamino)pyrazin-2-yl]-5H,6H,7H,8H-pyrido[3,4-b]pyrazin-6-yl}ethan-1-one] | < 0.1 | 0.1 to 1 | – | – | –
CC(=O)N1CCc2nc(N3CCN(Cc4cc(Cl)ccc4F)CC3)c(-c3ccc(F)c(N)n3)nc2C1 [Compound 582, 1-[3-(6-amino-5-fluoro-2-pyridyl)-2-{4-[(5-chloro-2-fluorophenyl)methyl]-1-piperazinyl}-5,6,7,8-tetrahydro-1,4,6-triaza-6-naphthyl]-1-ethanone] | – | – | – | – | IC50 (GPR6; [3]): < 0.1 µM; IC50 (GPR3; [4]): 1 to 30 µM
CCn1cc(-c2nc3c(nc2N2CCC(Oc4cc(Cl)ccc4Cl)CC2)CCN(C(C)=O)C3)cn1 [Compound 400, 1-{2-[4-(2,5-dichlorophenoxy)piperidin-1-yl]-3-(1-ethyl-1H-pyrazol-4-yl)-5H,6H,7H,8H-pyrido[3,4-b]pyrazin-6-yl}ethan-1-one] | – | – | 0.1 to 1 | 1 to 30 | –
CC(=O)N1CCc2nc(N3CCC(Oc4ccc(F)cc4F)CC3)c(-c3cnn(C4CN(C)C4)c3)nc2C1 [Compound 212, 1-{2-[4-(2,4-difluorophenoxy)piperidin-1-yl]-3-[1-(1-methylazetidin-3-yl)-1H-pyrazol-4-yl]-5H,6H,7H,8H-pyrido[3,4-b]pyrazin-6-yl}ethan-1-one] | – | – | 1 to 30 | 1 to 30 | –
COc1cc(-c2nc3c(nc2N2CCC(Oc4ccc(F)cc4F)CC2)CCN(C(C)=O)C3)ccn1 [Compound 20, 1-{2-[4-(2,4-difluorophenoxy)piperidin-1-yl]-3-(2-methoxypyridin-4-yl)-5H,6H,7H,8H-pyrido[3,4-b]pyrazin-6-yl}ethan-1-one] | – | – | – | – | IC50 (GPR6; [5]): 0.1 to 1 µM; IC50 (GPR3; [5]): 1 to 30 µM
CC(=O)N1CCc2nc(N3CCC(Oc4ccc(F)cc4F)CC3)c(-c3cnn(C4CC4)c3)nc2C1 [Compound 164] | – | – | 0.1 to 1 | 1 to 30 | –
CNC(=O)c1cc2nc(N3CCC(Oc4ccc(F)cc4F)CC3)c(-c3cncc(OC)n3)nc2cn1 [Compound 222, 2-[4-(2,4-difluorophenoxy)piperidin-1-yl]-3-(6-methoxypyrazin-2-yl)-N-methylpyrido[3,4-b]pyrazine-7-carboxamide] | – | – | 1 to 30 | 1 to 30 | –
Cc1cncc2nc(-c3cnn(C)c3)c(N3CCC(Oc4ccc(F)cc4F)CC3)nc12 [Compound 480, 4-(2,4-difluorophenoxy)-1-[8-methyl-3-(1-methyl-1H-pyrazol-4-yl)pyrido[3,4-b]pyrazin-2-yl]piperidine] | – | – | 0.1 to 1 | 1 to 30 | –
CC(=O)N1CCc2nc(N3CCC(Oc4ccc(F)cc4F)CC3)c(-c3cncc(=O)[nH]3)nc2C1 [Compound 12, 6-{6-acetyl-2-[4-(2,4-difluorophenoxy)piperidin-1-yl]-5H,6H,7H,8H-pyrido[3,4-b]pyrazin-3-yl}-1,2-dihydropyrazin-2-one] | – | – | – | – | IC50 (GPR6; [5]): 1 to 30 µM; IC50 (GPR3; [5]): 1 to 30 µM
CC1CN(Cc2ccc(F)cc2F)CCN1c1nc2ccncc2nc1-c1cn[nH]c1 (single isomer, unassigned) [Compound 45, 4-[(2,4-difluorophenyl)methyl]-2-methyl-1-[3-(1H-pyrazol-4-yl)pyrido[3,4-b]pyrazin-2-yl]piperazine] | – | – | – | – | IC50 (GPR6; [5]): 1 to 30 µM; IC50 (GPR3; [5]): 1 to 30 µM
Cn1cc(-c2nc3cnc([C@H](O)C(C)(C)O)cc3nc2N2CCC(=Cc3ccc(F)cc3F)CC2)cn1 (single isomer, unassigned) [Compound 720] | < 0.1 | 1 to 30 | – | – | –
CC(=O)N1CCc2nc(N3CCC(Oc4ccc(F)cc4F)CC3)c(-c3cnn4c3CN(C)CC4)nc2C1 [Compound 110, 1-{2-[4-(2,4-difluorophenoxy)piperidin-1-yl]-3-{5-methyl-4H,5H,6H,7H-pyrazolo[1,5-a]pyrazin-3-yl}-5H,6H,7H,8H-pyrido[3,4-b]pyrazin-6-yl}ethan-1-one] | – | – | 1 to 30 | 1 to 30 | –
CC(=O)N1CCc2nc(N3CCC(Oc4ccc(F)cc4F)CC3)c(-c3cc[nH]c3)nc2C1 [Compound 46, 1-{2-[4-(2,4-difluorophenoxy)piperidin-1-yl]-3-(1H-pyrrol-3-yl)-5H,6H,7H,8H-pyrido[3,4-b]pyrazin-6-yl}ethan-1-one] | – | – | – | – | IC50 (GPR6; [5]): 0.1 to 1 µM; IC50 (GPR3; [5]): 1 to 30 µM
CCn1cc(-c2nc3c(nc2N2CCC(Oc4ccc(F)cc4F)CC2)CCN(C(=O)CO)C3)cn1 [Compound 311, 1-{2-[4-(2,4-difluorophenoxy)piperidin-1-yl]-3-(1-ethyl-1H-pyrazol-4-yl)-5H,6H,7H,8H-pyrido[3,4-b]pyrazin-6-yl}-2-hydroxyethan-1-one] | < 0.1 | 1 to 30 | – | – | –
COC[C@H](O)c1cc2nc(-c3cnn(C)c3)c(N3CCC(Oc4ccc(F)cc4F)CC3)nc2cn1 (single isomer, unassigned) [Compound 681] | < 0.1 | 0.1 to 1 | – | – | –
CC(=O)N1CCc2nc(N3CCN(Cc4ccc[nH]c4=O)CC3)c(-c3cnn(C)c3)nc2C1 [Compound 531, 3-({4-[6-acetyl-3-(1-methyl-4-pyrazolyl)-5,6,7,8-tetrahydro-1,4,6-triaza-2-naphthyl]-1-piperazinyl}methyl)-2(1H)-pyridinone] | – | – | – | – | IC50 (GPR6; [3]): ≥ 30 µM; IC50 (GPR3; [4]): ≥ 30 µM
CC(O)c1cc2nc(N3CCC(Oc4ccc(F)cc4F)CC3)c(-c3cnn(C)c3)nc2cn1 (stereo not drawn) [Compound 467, 1-{2-[4-(2,4-difluorophenoxy)piperidin-1-yl]-3-(1-methyl-1H-pyrazol-4-yl)pyrido[3,4-b]pyrazin-7-yl}ethan-1-ol] | – | – | 1 to 30 | 1 to 30 | –
Fc1ccc(OC2CCN(c3nc4c(nc3-c3cn[nH]c3)CN(C3COC3)CC4)CC2)c(F)c1 [Compound 199, 4-(2,4-difluorophenoxy)-1-[6-(oxetan-3-yl)-3-(1H-pyrazol-4-yl)-5H,6H,7H,8H-pyrido[3,4-b]pyrazin-2-yl]piperidine] | – | – | 0.1 to 1 | 1 to 30 | –
CC(=O)N1CCc2nc(N3CCN(Cc4ccc(Cl)cc4F)CC3)c(-c3ccc(F)c(N)n3)nc2C1 [Compound 610, 1-[3-(6-amino-5-fluoro-2-pyridyl)-2-{4-[(4-chloro-2-fluorophenyl)methyl]-1-piperazinyl}-5,6,7,8-tetrahydro-1,4,6-triaza-6-naphthyl]-1-ethanone] | < 0.1 | 1 to 30 | – | – | –
COc1ccc(-c2nc3c(nc2N2CCC(Oc4ccc(F)cc4F)CC2)CCN(C(C)=O)C3)cn1 [Compound 126, 1-{2-[4-(2,4-difluorophenoxy)piperidin-1-yl]-3-(6-methoxypyridin-3-yl)-5H,6H,7H,8H-pyrido[3,4-b]pyrazin-6-yl}ethan-1-one] | – | – | 0.1 to 1 | 1 to 30 | –
CC(C)(O)[C@@](C)(O)c1cc2nc(N3CCC(Oc4ccc(F)cc4F)CC3)c(-c3cnn(C(F)F)c3)nc2cn1 (single isomer, unassigned) [Compound 656] | 0.1 to 1 | 1 to 30 | – | – | –
CCn1cc(-c2nc3c(nc2N2CCC(Oc4ccc(F)cc4F)CC2)CCN(C(=O)C2CC(F)(F)CN2)C3)cn1 (stereo not drawn) [Compound 481, (2-(4-(2,4-difluorophenoxy)piperidin-1-yl)-3-(1-ethyl-1H-pyrazol-4-yl)-7,8-dihydropyrido[3,4-b]pyrazin-6(5H)-yl)(4,4-difluoropyrrolidin-2-yl)methanone] | – | – | 0.1 to 1 | 1 to 30 | –
CC(C)(O)[C@@](C)(O)c1cc2nc(N3CCN(Cc4ccccc4F)CC3)c(-c3cnn(C4CC4)c3)nc2cn1 (single isomer, unassigned) [Compound 747] | 0.1 to 1 | 1 to 30 | – | – | –
CC(=O)N1CCc2nc(N3CCN(Cc4cc(F)ccc4F)CC3)c(-c3cnn(C)c3)nc2C1 [Compound 505, 1-(2-{4-[(2,5-difluorophenyl)methyl]-1-piperazinyl}-3-(1-methyl-4-pyrazolyl)-5,6,7,8-tetrahydro-1,4,6-triaza-6-naphthyl)-1-ethanone] | – | – | – | – | IC50 (GPR6; [3]): 0.1 to 1 µM; IC50 (GPR3; [4]): 1 to 30 µM
Cn1cc(-c2nc3cnc(C(O)CO)cc3nc2N2CCC(Oc3ccc(F)cc3F)CC2)cn1 (stereo not drawn) [Compound 470, 1-(2-(4-(2,4-difluorophenoxy)piperidin-1-yl)-3-(1-methyl-1H-pyrazol-4-yl)pyrido[3,4-b]pyrazin-7-yl)ethane-1,2-diol] | – | – | 1 to 30 | 1 to 30 | –
COc1ccccc1CN1CCN(c2nc3c(nc2-c2cnn(C)c2)CN(C(C)=O)CC3)CC1 [Compound 509, 1-(2-{4-[(o-methoxyphenyl)methyl]-1-piperazinyl}-3-(1-methyl-4-pyrazolyl)-5,6,7,8-tetrahydro-1,4,6-triaza-6-naphthyl)-1-ethanone] | – | – | – | – | IC50 (GPR6; [3]): ≥ 30 µM; IC50 (GPR3; [4]): 1 to 30 µM
CC(C)(O)[C@](C)(O)c1cc2nc(-c3cnn(C4CC4)c3)c(N3CCN(Cc4ccc(F)cc4F)CC3)nc2cn1 [Compound 683, (R)-2-[2-(1-cyclopropyl-4-pyrazolyl)-3-{4-[(2,4-difluorophenyl)methyl]-1-piperazinyl}-1,4,6-triaza-7-naphthyl]-3-methyl-2,3-butanediol] | 0.1 to 1 | 1 to 30 | – | – | –

Reference: patent publication US20260042755A1, “GPR6 INVERSE AGONISTS” (MapLight Therapeutics, Inc., priority 2022, published 2026)
